In brackets after ≈: the same amount, converted by molar mass. Positions of bridges follow the written chain, without caps; N, C: chain ends. No end group written: not given here.
Experiments:
MRSA/MDR S. aureus = details: ref [44],[45],[46],[47]; cited from earlier work
Excerpt: Table 5 Comparison of MICs of Brevinin-1BW and related AMPs congeners against specific microorganisms. | column: MIC (µM) / MRSA/MDR S. aureus

S. aureus = details: ref [44],[45],[46],[47]; cited from earlier work
Excerpt: Table 5 Comparison of MICs of Brevinin-1BW and related AMPs congeners against specific microorganisms. | column: MIC (µM) / S. aureus

E. faecalis = details: ref [44],[45],[46],[47]; cited from earlier work
Excerpt: Table 5 Comparison of MICs of Brevinin-1BW and related AMPs congeners against specific microorganisms. | column: MIC (µM) / E. faecalis

E. faecalis (ATCC29212) = experiment: microbe, parasite or virus in culture; assay type: cell-based, Enterococcus faecalis; details: Enterococcus faecalis; E. faecalis (ATCC29212); CLSI two-fold dilution, MH medium, 1 × 10^6 CFU/mL, 37 °C, 18 h, OD600; 9 replicates of 3 independent experiments; read-out: MIC
Method: (§1) The minimum inhibitory concentration (MIC) of the Brevinin-1BW was measured in 96-well microtiter plates according to the Clinical and Laboratory Standards Institute (CLSI). The activated strains were treated with Mueller Hinton Agar (MHA) solid medium. Single colonies were picked and expanded to the logarithmic growth phase, and the solution was diluted to 2 × 10^6 CFU/mL using the McFarland turbidity standard. The MIC was determined with the two-fold dilution method. Briefly, 50 μL of Mueller Hinton (MH) medium was added to a 96-well plate in advance. Then, 50 μL of AMP solution was added to the first well, and 50 μL was pipetted into the next well after mixing using a row gun, while 50 μL was discarded from the last well. Final concentrations of Brevinin-1BW were 100, 50, 25, 12.5, 6.25, and 3.125 μg/mL. A 50 μL volume of the diluted bacterial solution was added, and the final concentration of the bacterial solution was 1 × 10^6 CFU/mL. This was then placed into a 37 °C incubator for 18 h until the next day to observe the degree of turbidity of the 96-well plate and measure the absorbance of the wells at 600 nm with a multifunctional microplate reader (SpectraMax iD5, Molecular Devices, Sunnyvale, CA, USA). The absence of turbidity and the measured concentration of absorbance being less than the opposing group was taken as the MIC. The positive control used ampicillin at the same final concentration as Brevinin-1BW, the negative control used 50 μL of MH medium mixed with 50 μL of 2 × 10^6 CFU/mL bacterial solution, and the blank contained only 100 μL of MH medium. Three replicate wells were set up for each experiment, and each experiment was repeated three times. The MIC and all concentrations above the MIC of bacterial solution coated on MHA solid medium were placed into 37 °C incubator incubation for 18 h. The lowest concentration resulting in no colony growth was taken as the minimum bactericidal concentration (MBC).

[1] = tested on: P. aeruginosa (ATCC27853); experiment: microbe, parasite or virus in culture; assay type: cell-based, Pseudomonas aeruginosa; details: Pseudomonas aeruginosa; P. aeruginosa (ATCC27853); CLSI two-fold dilution, MH medium, 1 × 10^6 CFU/mL, 37 °C, 18 h, OD600; 9 replicates of 3 independent experiments; read-out: MIC
Method: as §1

E. coli (MDR ATCC35218) = experiment: microbe, parasite or virus in culture; assay type: cell-based, Escherichia coli; details: Escherichia coli; E. coli (MDR ATCC35218); CLSI two-fold dilution, MH medium, 1 × 10^6 CFU/mL, 37 °C, 18 h, OD600; 9 replicates of 3 independent experiments; read-out: MIC
Method: as §1

[2] = tested on: S. epidermidis (CI 1607BL1D39); experiment: microbe, parasite or virus in culture; assay type: cell-based, Staphylococcus epidermidis; details: Staphylococcus epidermidis; S. epidermidis (CI 1607BL1D39), clinical isolate; CLSI two-fold dilution, MH medium, 1 × 10^6 CFU/mL, 37 °C, 18 h, OD600; 9 replicates of 3 independent experiments; read-out: MIC
Method: as §1

[3] = tested on: S. haemolyticus (CI 1607BLD590); experiment: microbe, parasite or virus in culture; assay type: cell-based, Staphylococcus haemolyticus; details: Staphylococcus haemolyticus; S. haemolyticus (CI 1607BLD590), clinical isolate; CLSI two-fold dilution, MH medium, 1 × 10^6 CFU/mL, 37 °C, 18 h, OD600; 9 replicates of 3 independent experiments; read-out: MIC
Method: as §1

[4] = tested on: E. hormaechei (ATCC700323); experiment: microbe, parasite or virus in culture; assay type: cell-based, Enterobacter hormaechei; details: Enterobacter hormaechei; E. hormaechei (ATCC700323); CLSI two-fold dilution, MH medium, 1 × 10^6 CFU/mL, 37 °C, 18 h, OD600; 9 replicates of 3 independent experiments; read-out: MIC
Method: as §1

E. coli (ATCC25922) = experiment: microbe, parasite or virus in culture; assay type: cell-based; details: Escherichia coli; E. coli (ATCC25922); CLSI two-fold dilution, MH medium, 1 × 10^6 CFU/mL, 37 °C, 18 h, OD600; 9 replicates of 3 independent experiments; read-out: MIC
Method: as §1

[5] = tested on: C. koseri (CI 1611SED223); experiment: microbe, parasite or virus in culture; assay type: cell-based, Citrobacter koseri; details: Citrobacter koseri; C. koseri (CI 1611SED223), clinical isolate; CLSI two-fold dilution, MH medium, 1 × 10^6 CFU/mL, 37 °C, 18 h, OD600; 9 replicates of 3 independent experiments; read-out: MIC
Method: as §1

S. aureus (ATCC25923) = experiment: microbe, parasite or virus in culture; assay type: cell-based, Staphylococcus aureus; details: Staphylococcus aureus; S. aureus (ATCC25923); CLSI two-fold dilution, MH medium, 1 × 10^6 CFU/mL, 37 °C, 18 h, OD600; 9 replicates of 3 independent experiments; read-out: MIC
Method: as §1

[6] = tested on: S. aureus (MDR ATCC29213); experiment: microbe, parasite or virus in culture; assay type: cell-based, Staphylococcus aureus; details: Staphylococcus aureus; S. aureus (MDR ATCC29213); CLSI two-fold dilution, MH medium, 1 × 10^6 CFU/mL, 37 °C, 18 h, OD600; 9 replicates of 3 independent experiments; read-out: MIC
Method: as §1

[7] = tested on: S. saprophytics (ATCCBAA750); experiment: microbe, parasite or virus in culture; assay type: cell-based, Staphylococcus saprophyticus; details: Staphylococcus saprophyticus; S. saprophytics (ATCCBAA750); CLSI two-fold dilution, MH medium, 1 × 10^6 CFU/mL, 37 °C, 18 h, OD600; 9 replicates of 3 independent experiments; read-out: MIC
Method: as §1

[8] = tested on: K. pneumoniae (ATCC700603); experiment: microbe, parasite or virus in culture; assay type: cell-based, Klebsiella pneumoniae; details: Klebsiella pneumoniae; K. pneumoniae (ATCC700603); CLSI two-fold dilution, MH medium, 1 × 10^6 CFU/mL, 37 °C, 18 h, OD600; 9 replicates of 3 independent experiments; read-out: MIC
Method: as §1

In the case of “FLGALFKVASKLVPAAICSISKKC (disulfide 18-24 (inferred)) [Brevinin-1GHd, related Brevinin-1 family AMP from publications]”, the MIC (MRSA/MDR S. aureus) is listed as 4 µM and the MIC (S. aureus) is listed as 2 µM.
For “FLPAVIRVAANVLPTVFCAISKKC (disulfide 18-24 (inferred)) [Brevinin-1JDa, related Brevinin-1 family AMP from publications]”, the MIC (MRSA/MDR S. aureus) is listed as 13 µM and the MIC (S. aureus) is listed as 6 µM.
For “FLGSIVGALASALPSLISKIRN [Brevinin1TSa, related Brevinin-1 family AMP from publications]”, the MIC (E. faecalis) is given as 50 µM, the MIC (MRSA/MDR S. aureus) is given as 25 µM and the MIC (S. aureus) is given as 25 µM.
For “FLPGVLRLVTKVGPAVVCAITRNC (disulfide 18-24 (inferred)) [Brevinin-1ISa, related Brevinin-1 family AMP from publications]”, the MIC (MRSA/MDR S. aureus) is given as 3.1 µM and the MIC (S. aureus) is given as 3.1 µM.
For “FLGAVLKVAGKLVPAAICKISKKC (disulfide 18-24 (inferred)) [Brevinin-1GHa, related Brevinin-1 family AMP from publications]”, the MIC (E. faecalis) is listed as 8 µM, the MIC (MRSA/MDR S. aureus) is listed as 4 µM and the MIC (S. aureus) is listed as 2 µM.
For `CC1(C)S[C@@H]2[C@H](NC(=O)[C@H](N)c3ccccc3)C(=O)N2[C@H]1C(=O)O` [Ampicillin, reference compound], the MIC (E. faecalis (ATCC29212)) was 3.12 µg/mL (≈ 8.94 µM), the MIC [1] was > 100 µg/mL and the MIC (E. coli (MDR ATCC35218)) was > 100 µg/mL. The MIC [2] was 3.12 µg/mL (≈ 8.94 µM), the MIC [3] was > 100 µg/mL and the MIC [4] was > 100 µg/mL. For the same molecule, the MIC (E. coli (ATCC25922)) was 100 µg/mL (≈ 286 µM), the MIC [5] was > 100 µg/mL and the MIC (S. aureus (ATCC25923)) was 3.12 µg/mL (≈ 8.94 µM). The MIC [6] was > 100 µg/mL, the MIC [7] was 3.12 µg/mL (≈ 8.94 µM) and the MIC [8] was > 100 µg/mL.
In the case of “FLPAVLRVAAKVVPTVFCLISKKC (disulfide 18-24 (inferred)) [Brevinin-1JDc, related Brevinin-1 family AMP from publications]”, the MIC (MRSA/MDR S. aureus) is listed as 3 µM and the MIC (S. aureus) is listed as 6 µM.
